Experiments:
[1] = test system: SW48 cells; assay: Inhibition of SW48 cell proliferation (CellTiter-Glo); format: cell-based; settings: Homo sapiens; SW48 cells (MSI-H), 120 hours
Description: (§1) The following method was used to determine the effect of the compounds of the present disclosure on SW48 cell proliferation. SW48 cells (MSI-H cells) were purchased from American ATCC cell bank and cultured in Leibovitz's L-15 medium (Gibco, catalog No. 11415064) containing 10% fetal bovine serum, 100 U penicillin, and 100 µg/mL streptomycin. Cell viability was determined by CellTiter-Glo® Luminescent Cell Viability Assay kit (Promega, catalog No. G7573).
(§2) The experiment was performed according to the steps of the kit manual, which is briefly described as follows: test compounds were first dissolved in DMSO to prepare 10 mM stock solutions, and then diluted with medium to prepare test samples, with final compound concentrations ranging from 10000 nM to 1.52 nM. Cells in logarithmic growth phase were seeded into 96-well cell culture plates at a density of 500 cells per well and cultured overnight at 37 °C in an air incubator, then test compounds were added and cultivation continued for 120 hours. After the cultivation was completed, 40 µL of CellTiter-Glo detection reagent was added to each well, shaken for 5 minutes, and then left to stand for 10 minutes. Luminescence values of each well were read on a microplate reader using Luminescence mode. The percentage inhibition at each concentration point was calculated by comparison with the control group (0.1% DMSO), and then IC50 values for the compounds for inhibition of cell proliferation were obtained using nonlinear regression analysis of compound concentration logarithm versus inhibition rate in GraphPad Prism 9 software, as shown in Table 2.
The IC50 value results of the compounds of the present disclosure are represented by A, wherein "A" indicates 1 nM < IC50 ≤ 100 nM. Table 2 IC50 data for inhibition of SW48 cell proliferation by the compounds of the present disclosure

[2] = test system: RL95-2 cells; assay: Inhibition of RL95-2 cell proliferation (CellTiter-Glo); format: cell-based; settings: Homo sapiens; RL95-2 cells (MSI-H), 120 hours
Description: as §1, with “RL95-2” for “SW48”, “Cell Resource Center of Shanghai Institutes for Biological Sciences, Chinese Academy of Sciences,” for “American ATCC cell bank”, “DMEM/F12” for “Leibovitz's L-15”, “A4192001)” for “11415064)”
as §2, with “a 5% CO2” for “an air”, “incubator, and” for “incubator,”, “50” for “40”, “3.” for “2.”
The IC50 value results of the compounds of the present disclosure are represented by A, wherein "A" indicates 1 nM < IC50 ≤ 100 nM. Table 3 IC50 data for inhibition of RL95-2 cell proliferation by the compounds of the present disclosure

[3] = biological target: T1, recombinant human WRN (Homo sapiens, UniProt Q14191); assay: Inhibition of WRN enzyme activity (ATPase), ADP-Glo Kinase Assay; format: biochemical; settings: WRN protein 5 nM, Flap 0.1 nM, ATP 30 µM; read-out: IC50
T1 construct: purchased BPS 101264
T1 sequence (Q14191 whole entry): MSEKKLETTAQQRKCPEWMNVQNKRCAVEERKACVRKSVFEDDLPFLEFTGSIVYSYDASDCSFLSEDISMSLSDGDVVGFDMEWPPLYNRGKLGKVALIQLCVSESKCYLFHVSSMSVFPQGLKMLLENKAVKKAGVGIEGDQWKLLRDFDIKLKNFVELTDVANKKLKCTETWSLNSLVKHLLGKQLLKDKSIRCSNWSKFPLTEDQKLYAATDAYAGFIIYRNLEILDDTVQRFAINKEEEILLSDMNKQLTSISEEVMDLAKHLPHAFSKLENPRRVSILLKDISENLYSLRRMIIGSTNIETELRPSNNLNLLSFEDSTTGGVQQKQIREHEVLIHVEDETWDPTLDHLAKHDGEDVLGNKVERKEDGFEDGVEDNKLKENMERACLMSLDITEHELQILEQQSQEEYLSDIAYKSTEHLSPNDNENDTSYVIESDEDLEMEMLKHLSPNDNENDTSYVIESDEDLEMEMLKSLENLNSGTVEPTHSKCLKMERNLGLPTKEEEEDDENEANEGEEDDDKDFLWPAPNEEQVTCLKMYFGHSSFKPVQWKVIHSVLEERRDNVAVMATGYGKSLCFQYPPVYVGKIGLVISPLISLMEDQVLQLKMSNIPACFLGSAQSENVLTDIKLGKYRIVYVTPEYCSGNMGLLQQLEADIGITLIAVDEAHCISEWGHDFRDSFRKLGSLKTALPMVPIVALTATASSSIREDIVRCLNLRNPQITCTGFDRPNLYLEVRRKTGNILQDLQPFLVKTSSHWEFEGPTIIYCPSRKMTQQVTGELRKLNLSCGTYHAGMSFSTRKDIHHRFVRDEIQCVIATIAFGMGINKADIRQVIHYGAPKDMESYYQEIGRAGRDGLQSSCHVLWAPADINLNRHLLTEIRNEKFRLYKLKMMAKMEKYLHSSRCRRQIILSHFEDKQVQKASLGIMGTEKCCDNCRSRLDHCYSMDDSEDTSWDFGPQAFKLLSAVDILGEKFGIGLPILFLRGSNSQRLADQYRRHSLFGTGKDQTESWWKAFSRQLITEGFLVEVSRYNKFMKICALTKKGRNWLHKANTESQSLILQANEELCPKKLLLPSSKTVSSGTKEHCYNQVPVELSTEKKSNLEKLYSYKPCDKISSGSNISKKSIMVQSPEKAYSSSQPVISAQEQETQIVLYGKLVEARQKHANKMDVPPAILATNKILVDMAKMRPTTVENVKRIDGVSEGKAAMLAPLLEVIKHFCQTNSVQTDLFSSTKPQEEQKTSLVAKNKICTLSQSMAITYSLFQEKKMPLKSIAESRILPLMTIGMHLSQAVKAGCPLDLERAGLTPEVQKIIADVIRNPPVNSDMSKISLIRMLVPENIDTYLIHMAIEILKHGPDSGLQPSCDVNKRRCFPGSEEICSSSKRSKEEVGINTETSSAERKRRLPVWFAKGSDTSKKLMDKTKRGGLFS
How it was run: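 ATPase activity was measured by ADP-Glo luminescence after a 10-min room-temperature reaction with 30 µM ATP and 0.1 nM Flap26 oligonucleotide substrate. The 5 nM WRN had first been exposed to compound (0.004–1000 nM) for 15 min in pH 7.5 Tris buffer with 2 mM MgCl2. IC50 values came from log-concentration regression against the DMSO control.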

Compound | IC50 [1] [nM] | IC50 [2] [nM] | IC50 [3] [nM]
CCc1c(N2CCN(C(=O)c3ncnc(C)c3O)CC2)c(=O)n2nc(-c3ccc4nc(N)oc4c3)nc2n1CC(=O)Nc1ccc(C(F)(F)F)cc1Cl [Example 140, 2-(2-(2-aminobenzo[d]oxazol-6-yl)-5-ethyl-6-(4-(5-hydroxy-6-methylpyrimidine-4-carbonyl)piperazin-1-yl)-7-oxo-[1,2,4]triazolo[1,5-a]pyrimidin-4(7H)-yl)-N-(2-chloro-4-(trifluoromethyl)phenyl)acetamide] | 1 to 100 | 1 to 100 | 1 to 100
CCc1c(N2CCN(C(=O)c3ncnc(C)c3O)CC2)c(=O)n2nc(-c3ccc4c(c3)NCCO4)nc2n1CC(=O)Nc1ccc(C(F)(F)F)cc1Cl [Example 157, N-(2-chloro-4-(trifluoromethyl)phenyl)-2-(2-(3,4-dihydro-2H-benzo[b][1,4]oxazin-6-yl)-5-ethyl-6-(4-(5-hydroxy-6-methylpyrimidine-4-carbonyl)piperazin-1-yl)-7-oxo-[1,2,4]triazolo[1,5-a]pyrimidin-4(7H)-yl)acetamide] | 1 to 100 | 1 to 100 | 1 to 100
CCc1c(N2CCN(C(=O)c3ncccc3O)CC2)c(=O)n2nc(C3=CC4CC(OC)CC4C3)nc2n1CC(=O)Nc1ccc(C(F)(F)F)cc1Cl (stereo not shown) [Example 186, N-(2-chloro-4-(trifluoromethyl)phenyl)-2-(5-ethyl-6-(4-(3-hydroxypicolinoyl)piperazin-1-yl)-2-(5-methoxy-1,3a,4,5,6,6a-hexahydropentalen-2-yl)-7-oxo-[1,2,4]triazolo[1,5-a]pyrimidin-4(7H)-yl)acetamide] | 1 to 100 | 1 to 100 | 1 to 100
CCc1c(N2CCN(C(=O)c3ncnc(C)c3O)CC2)c(=O)n2nc(C3=CCC4(CC3)COC4)nc2n1CC(=O)Nc1ccc(S(F)(F)(F)(F)F)cc1Cl [Example 175, N-(2-chloro-4-(pentafluoro-λ6-sulfaneyl)phenyl)-2-(5-ethyl-6-(4-(5-hydroxy-6-methylpyrimidine-4-carbonyl)piperazin-1-yl)-7-oxo-2-(2-oxaspiro[3.5]non-6-en-7-yl)-[1,2,4]triazolo[1,5-a]pyrimidin-4(7H)-yl)acetamide] | 1 to 100 | – | 1 to 100
CCc1c(N2CCN(C(=O)c3ncnc(C)c3O)CC2)c(=O)n2nc(C3=CCC4(CC3)COC4)nc2n1CC(=O)Nc1ccc(S(F)(F)(F)(F)F)cc1 [Example 176, 2-(5-ethyl-6-(4-(5-hydroxy-6-methylpyrimidine-4-carbonyl)piperazin-1-yl)-7-oxo-2-(2-oxaspiro[3.5]non-6-en-7-yl)-[1,2,4]triazolo[1,5-a]pyrimidin-4(7H)-yl)-N-(4-(pentafluoro-λ^6-sulfaneyl)phenyl)acetamide] | 1 to 100 | – | 1 to 100
CCc1c(C2=CCN(C(=O)c3ncnc(C)c3O)CC2)c(=O)n2nc(C3=CCCCCC3)nc2n1CC(=O)Nc1ccc(S(F)(F)(F)(F)F)cc1 [Example 91, 2-(2-(cyclohept-1-en-1-yl)-5-ethyl-6-(1-(5-hydroxy-6-methylpyrimidine-4-carbonyl)-1,2,3,6-tetra hydropyridin-4-yl)-7-oxo-[1,2,4]triazolo[1,5-a]pyrimidin-4(7H)-yl)-N-(4-(pentafluoro-λ^6-sulfaneyl)phenyl)acetamide] | 1 to 100 | – | 1 to 100
CCc1c(N2CCN(C(=O)c3ncnc(C)c3O)CC2)c(=O)n2nc(-c3ccc4c(c3)CCO4)nc2n1CC(=O)Nc1ccc(S(F)(F)(F)(F)F)cc1Cl [Example 87, N-(2-chloro-4-(pentafluoro-λ^6-sulfaneyl)phenyl)-2-(2-(2,3-dihydrobenzofuran-5-yl)-5-ethyl-6-(4-(5-hydroxy-6-methylpyrimidine-4-carbonyl)piperazin-1-yl)-7-oxo-[1,2,4]triazolo[1,5-a]pyrimidin-4(7H)-yl)acetamide] | 1 to 100 | – | 1 to 100
CCc1c(N2CCN(C(=O)c3ncccc3O)CC2)c(=O)n2nc(-c3ccc4c(c3)CCO4)nc2n1CC(=O)Nc1ccc(C(F)(F)F)cc1Cl [Example 104, N-(2-chloro-4-(trifluoromethyl)phenyl)-2-(2-(2,3-dihydrobenzofuran-5-yl)-5-ethyl-6-(4-(3-hydroxypicolinoyl)piperazin-1-yl)-7-oxo-[1,2,4]triazolo[1,5-a]pyrimidin-4(7H)-yl)acetamide] | 1 to 100 | – | 1 to 100
[2H]c1cc2cc(-c3nc4n(CC(=O)Nc5ccc(C(F)(F)F)cc5Cl)c(CC)c(N5CCN(C(=O)c6ncnc(C)c6O)CC5)c(=O)n4n3)ccc2s1 [Example 169, 2-(2-(benzo[b]thiophen-5-yl-2-d)-5-ethyl-6-(4-(5-hydroxy-6-methylpyrimidine-4-carbonyl)piperazin-1-yl)-7-oxo-[1,2,4]triazolo[1,5-a]pyrimidin-4(7H)-yl)-N-(2-chloro-4-(trifluoromethyl)phenyl) acetamide] | 1 to 100 | – | 1 to 100
CCc1c(N2CCN(C(=O)c3nc(C)ccc3O)CC2)c(=O)n2nc(-c3ccc4c(c3)CCO4)nc2n1CC(=O)Nc1ccc(C(F)(F)F)cc1Cl [Example 105, N-(2-chloro-4-(trifluoromethyl)phenyl)-2-(2-(2,3-dihydrobenzofuran-5-yl)-5-ethyl-6-(4-(3-hydroxy-6-methylpicolinoyl)piperazin-1-yl)-7-oxo-[1,2,4]triazolo[1,5-a]pyrimidin-4(7H)-yl)a cetamide] | 1 to 100 | – | 1 to 100
CCc1c(N2CCN(C(=O)c3ncnc(C)c3O)CC2)c(=O)n2nc(C=C3CCC3)nc2n1CC(=O)Nc1ccc(C(F)(F)F)cc1Cl [Example 33, N-(2-chloro-4-(trifluoromethyl)phenyl)-2-(2-(cyclobutylidenemethyl)-5-ethyl-6-(4-(5-hydroxy-6-methylpyrimidine-4-carbonyl)piperazin-1-yl)-7-oxo-[1,2,4]triazolo[1,5-a]pyrimidin-4(7H)-yl) acetamide] | 1 to 100 | – | < 1
CCc1c(N2CCN(C(=O)c3ncccc3O)CC2)c(=O)n2nc(C=C3CCC3)nc2n1CC(=O)Nc1ccc(S(F)(F)(F)(F)F)cc1 [Example 52, 2-(2-(cyclobutylidenemethyl)-5-ethyl-6-(4-(3-hydroxypicolinoyl)piperazin-1-yl)-7-oxo-[1,2,4]triazolo[1,5-a]pyrimidin-4(7H)-yl)-N-(4-(pentafluoro-λ^6-sulfaneyl)phenyl)acetamide] | 1 to 100 | – | < 1
CCc1c(N2CCN(C(=O)c3ncnc(C)c3O)CC2)c(=O)n2nc(C3=CCC4(CC3)CC4)nc2n1CC(=O)Nc1ccc(S(F)(F)(F)(F)F)cc1Cl [Example 174, N-(2-chloro-4-(pentafluoro-λ^6-sulfaneyl)phenyl)-2-(5-ethyl-6-(4-(5-hydroxy-6-methylpyrimidine-4-carbonyl)piperazin-1-yl)-7-oxo-2-(spiro[2.5]oct-5-en-6-yl)-[1,2,4]triazolo[1,5-a]pyrimidin-4(7 H)-yl)acetamide] | 1 to 100 | – | 1 to 100
CCc1c(N2CCN(C(=O)c3ncncc3O)CC2)c(=O)n2nc(-c3ccc4c(c3)CCO4)nc2n1CC(=O)Nc1ccc(C(F)(F)F)cc1Cl [Example 151, N-(2-chloro-4-(trifluoromethyl)phenyl)-2-(2-(2,3-dihydrobenzofuran-5-yl)-5-ethyl-6-(4-(5-hydroxypyrimidine-4-carbonyl)piperazin-1-yl)-7-oxo-[1,2,4]triazolo[1,5-a]pyrimidin-4(7H)-yl)acetamide] | 1 to 100 | – | 1 to 100

From patent publication EP4800015A1, “AZABICYCLO DERIVATIVE AND PREPARATION METHOD THEREFOR, AND USE” (Zhejiang Hisun Pharmaceutical Co., Ltd., priority 2023, dated 2025)
